The source of these data is patent US20240139188A1, “Arylamide Compounds For Treatment And Prevention Of Fungal Infections” (priority 2022, published 2024).

One experiment concerns Candida auris. In words: In vitro susceptibility (MIC), macrobroth dilution. To be noted: Candidozyma auris, Candida auris 20-253. The format is cell-based. (In general: Broth dilution looks for growth in wells or tubes with falling amounts of substance.)
The subject of the next experiment is Aspergillus terreus. As to the kind of experiment: In vitro susceptibility (MIC), macrobroth dilution. The experiment is classed as cell-based. To be noted: Aspergillus terreus 12-70.
Experiment [1] concerns critical fungal pathogens. In words: Checkerboard drug interaction testing (FICi), BRI with conventional antifungals. The experiment is classed as cell-based. To be noted: organisms tested, with the exception of Aspergillus.
In a further experiment the test system is Acremonium species. As to the kind of experiment: In vitro susceptibility (MIC), macrobroth dilution. The note with it: Acremonium species 18-51. The format is cell-based.
For a further experiment, the system named is C. neoformans. In words: BRI+CAS against yeasts, XTT metabolic activity. The note with it: CAS alone, 48 hours. (Tetrazolium assays rely on reduction of a dye to a coloured formazan, in cell work by metabolically active cells.)
The mark [2] stands for this setting: read-out: 50% Inhibition BRI (MIC50).
[3] abbreviates: read-out: 100% Inhibition BRI (MIC100).

Converted amounts (≈) assume the structure as drawn. Bounds are passed on as bounds.

On to `N=C(N)NCCCCC(=O)Nc1cc(C(F)(F)F)cc(NC(=O)c2cc(C(=O)Nc3cc(C(F)(F)F)cc(NC(=O)CCCCNC(=N)N)c3OC3CCNC3)ncn2)c1OC1CCNC1` (centres unmarked) [BRI, brilacidin], for which the MIC50 (in general, the lowest concentration that inhibits either 50% of growth or 50% of the strains tested, depending on the study) was > 64 µg/mL in the experiment with Candida auris (setting [2]), > 64 µg/mL in the experiment on Aspergillus terreus (setting [2]) and 4 µg/mL (≈ 4.27 µM) in the experiment on Acremonium species (setting [2]). For the same compound, the MIC with Candida auris (setting [3]), in the experiment on Aspergillus terreus (setting [3]) and with Acremonium species (setting [3]) was > 64 µg/mL each time. In experiment [1], the “in vitro activity of BRI alone” value is given as “favorable in vitro activity”.
For the compound `CC[C@H](C)C[C@H](C)CCCCCCCCC(=O)N[C@H]1C[C@@H](O)[C@@H](NCCN)NC(=O)[C@@H]2[C@@H](O)CCN2C(=O)[C@H]([C@H](O)CCN)NC(=O)[C@H]([C@H](O)[C@@H](O)c2ccc(O)cc2)NC(=O)[C@@H]2C[C@@H](O)CN2C(=O)[C@H]([C@@H](C)O)NC1=O` [CAS, caspofungin], in the experiment on C. neoformans, the “CAS concentration that completely inhibits metabolic activity (XTT)” value was 32 µg/mL.
